Measured values from patent US20180264088A1, “USE OF CREATINE KINASE AND DERIVED PEPTIDES THEREOF TO RELIEVE PAIN” (CENTRE NATIONAL DE LA RECHERCHE SCIENTIFIQUE, priority 2015, published 2018).

How the values were obtained:
CK-M = CK-M (Homo sapiens, UniProt P06732); assay: Inhibitory effect of morphine on ATP formation by creatine kinase; assay type: biochemical; conditions: ratio 3n/1n (FIG. 2)
C57Bl/6J mice = assay: Intrathecal injection, mechanical nociceptive thresholds of healthy mice, von Frey filaments; assay type: in vivo; conditions: for analgesia (mechanical nociceptive threshold vs control): right leg, two-ways ANOVA
Procedure: (§1) Experiments were performed on adult male C57Bl/6J mice (6 weeks old, Charles River, L'Arbresle, France). Animals were housed in groups of 3, under standard conditions (room temperature: 22° C.; 12/12-hour light-dark cycle) with ad libitum access to food and water. All experiments were conducted according to the recommendations of the European Committee Council Direction of Sep. 22, 2010 (2010/63/EU).
The functional properties of peptides P1 (20 nmoles) and P4 (10 nmoles) were evaluated through injections in the spinal cord of 4 groups of 6 mice C57B16/J (intrathecal injection, volume of 5 μl). […] Mice were previously placed under gaseous anesthesia with isoflurane (volatile anesthetic agent) with a minimum alveolar concentration (MAC) of 1.34%. A 27-gauge needle connected to a syringe was inserted between the vertebrae L5 and L6, in the subarachnoid space. Isoflurane induced a general anesthesia with respiratory depression in mice.
(§2) The mechanical threshold for hind paw withdrawal was determined using Von Frey hairs. Mice were placed in clear plexiglass boxes on an elevated mesh screen. Von Frey filaments (Bioseb, Chaville, France) were applied to the plantar surface of each hind paw in a series of ascending forces (0.4 g-15 g). Filaments were tested 5 times per paw, and the mechanical threshold was defined as 3 or more withdrawals out of the 5 trials. Lithium chloride and naloxone (Sigma-Aldrich, St. Louis, U.S.A.) were diluted in NaCl 0.9% (w/v).

[1] = system: C57Bl/6J neuropathic mice; assay: Intraperitoneal injection, mechanical nociceptive thresholds of neuropathic (cuffed) mice, von Frey filaments; assay type: in vivo; conditions: 10 nmoles; for effect on mechanical thresholds of Sham animals: Sham mice
Procedure: as §1, with “5,” for “3,”
(§3) All surgeries were done under aseptic conditions and ketamine/xylazine anaesthesia (ketamine: 17 mg/ml, xylazine: 2.5 mg/ml, i.p., 4 ml/kg, i.p.; Centravet, Taden, France). The right sciatic nerve was cuffed with a section of polyethylene tubing (cuff group) as previously described [Mosconi et Kruger, Pain, 64(1): 37-57, 1996] [7].
as §2, with “trials.” for “trials. Lithium chloride and naloxone (Sigma-Aldrich, St. Louis, U.S.A.) were diluted in NaCl 0.9% (w/v).”

cuffed mice C57Bl6/J [2] = assay: Intrathecal injection of AI-25, mechanical nociceptive threshold of cuffed mice; assay type: in vivo; conditions: 10 nmoles
Procedure: (§4) Experiments and surgeries were performed as previously described.
(§5) The functional property of peptide AI-25 (10 nmoles) was evaluated through injections in the spinal cord of 8 mice C57B16/J (intrathecal injection, volume 5 μl). The aim was to study the consequences of these injections on mechanical nociceptive threshold of cuffed mice using the calibrated forceps test.
(§6) The mechanical threshold for hind paw withdrawal was determined using Von Frey filaments as previously described.

cuffed mice C57Bl6/J [3] = assay: Intrathecal injection of KN-50, mechanical nociceptive threshold of cuffed mice; assay type: in vivo; conditions: 33 nmoles, vs saline solution
Procedure: as §4
as §5, with “KN-50 (33” for “AI-25 (10”, “nmoles) and NaCl 0.9%” for “nmoles)”, “mice, in comparison of saline solution.” for “mice using the calibrated forceps test.”
as §6

[4] = ELISA on peptide-coated plate: affinity for morphine; conditions: ligand 300 μM to 0.1 μM
[5] = system: cuffed rats (neuropathic); assay: Intrathecal injection, cuff neuropathic rat model, calibrated forceps test; assay type: in vivo; conditions: 10 nmoles
Procedure: as §1, with “Wistar at” for “C57Bl/6J mice”, “(2010/63/EU). Procedures were positively evaluated by the regional ethical committee, and experiments were conducted with an official authorization for animal experimentation from the French Department of Agriculture (license 67-116 to P.P.).” for “(2010/63/EU).”
as §3, with “[7]. Sham-operated mice underwent the same surgical procedure as cuffed animals without implantation of the cuff (sham group).” for “[7].”
The functional property of peptide P4 (10 nmoles) was evaluated through injections in the spinal cord of 1 groups of 3 rats (intrathecal injection, volume of 5 μl). The aim was to study the consequences of these injections on mechanic nociceptive threshold of cuffed animals in comparison of the sham group (control), using the calibrated forceps test. Rats were previously placed under gaseous anesthesia with isoflurane (volatile anesthetic agent) with a minimum alveolar concentration (MAC) of 1.34%. A 27-gauge needle connected to a syringe was inserted between the vertebrae L5 and L6, in the subarachnoid space.
The mechanical response was evaluated using digital calibrated forceps (Bioseb, Chaville, France) according to company's recommendations, before and 1 to 6 hours after intrathecal injections.

[6] = intrathecal, 10 nmoles, healthy mice
[7] = neuropathic mice, comparison to baseline
[8] = intrathecal, 20 nmoles, healthy mice

Sequence of CK-M (P06732 whole entry, species assumed): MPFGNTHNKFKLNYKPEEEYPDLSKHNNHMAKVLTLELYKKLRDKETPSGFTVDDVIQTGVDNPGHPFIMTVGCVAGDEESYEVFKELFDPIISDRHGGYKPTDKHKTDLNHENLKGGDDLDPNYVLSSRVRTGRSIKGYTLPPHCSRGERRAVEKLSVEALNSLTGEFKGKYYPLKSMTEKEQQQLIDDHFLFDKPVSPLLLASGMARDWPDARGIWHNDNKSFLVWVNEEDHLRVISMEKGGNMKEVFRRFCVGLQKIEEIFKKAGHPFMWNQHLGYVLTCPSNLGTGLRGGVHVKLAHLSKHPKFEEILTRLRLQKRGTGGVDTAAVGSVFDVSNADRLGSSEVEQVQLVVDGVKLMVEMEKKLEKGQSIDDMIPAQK

CN1CC[C@]23c4c5ccc(O)c4O[C@H]2[C@@H](O)C=C[C@H]3[C@H]1C5 [morphine, reference compound]
inhibition of enzymatic activity of CK (production of ATP from phosphocreatine) (CK-M): ~18%
analgesia on right leg 4 hours after injection (C57Bl/6J mice; intrathecal, 10 nmoles, healthy mice, Holm-Sidak): significant analgesia
analgesia (mechanical nociceptive threshold vs control) (C57Bl/6J mice; [6]): induced a significant analgesia
effect on mechanical thresholds of Sham animals [1]: No significant effect
analgesic effect, ipsilateral paw, at 3 h [1, 7]: significant analgesic effect

peptide AI-25: peptide derived from P4, amino acids 214-238 (SEQ ID NO: 4) of mouse creatine kinase B
neuropathic pain, ipsilateral paw mechanical threshold (cuffed mice C57Bl6/J [2]): reversed the neuropathic pain
non-cuffed contralateral paw mechanical threshold (cuffed mice C57Bl6/J [2]): did not significantly affect
neuropathic pain, ipsilateral paw mechanical threshold (cuffed mice C57Bl6/J [2]; listed as amino acids 214-238): present analgesic activity

peptide KN-50: peptide derived from P4, amino acids 196-246 (SEQ ID NO: 5) of mouse creatine kinase B
neuropathic pain, ipsilateral paw mechanical threshold (cuffed mice C57Bl6/J [3]): reversed the neuropathic pain
non cuffed contralateral paw mechanical threshold (cuffed mice C57Bl6/J [3]): did not affect
neuropathic pain, ipsilateral paw mechanical threshold (cuffed mice C57Bl6/J [3]; listed as amino acids 196-246): present analgesic activity

peptide P1: peptide consisting of amino acids 1-75 (SEQ ID NO: 2) from the mouse CK-B sequence SEQ ID NO: 1
values of von Frey / sensitivity towards mechanical stimulation (C57Bl/6J mice; [8]): close or equal to cut-off
analgesia (mechanical nociceptive threshold vs control) (C57Bl/6J mice; [8]): induced a significant analgesia
values of von Frey / sensitivity towards mechanical stimulation (C57Bl/6J mice; intrathecal, 20 nmoles, healthy mice, listed as amino acids 1-75): almost complete insensitivity
occlusion of analgesic activity by morphine (C57Bl/6J mice; peptide 20 nmoles injected in presence of 10 nmoles of morphine): occlusion of analgesic activity
affinity for morphine [4]: showed an affinity

peptide P4: peptide consisting of amino acids 184-258 (SEQ ID NO: 3) of the mouse CK-B sequence SEQ ID NO: 1
values of von Frey / sensitivity towards mechanical stimulation (C57Bl/6J mice; [6]): close or equal to cut-off
analgesia (mechanical nociceptive threshold vs control) (C57Bl/6J mice; [6]): induced a significant analgesia
values of von Frey / sensitivity towards mechanical stimulation (C57Bl/6J mice; intrathecal, 10 nmoles, healthy mice, listed as amino acids 184-258): almost complete insensitivity
occlusion of analgesic activity by morphine (C57Bl/6J mice; peptide 10 nmoles injected in presence of 10 nmoles of morphine): not observed
neuropathic pain, ipsilateral paw mechanical threshold ([5]; cuffed rats): reverses the neuropathic pain
non-cuffed contralateral paw mechanical threshold ([5]; cuffed rats): did not affect
duration of analgesia ([5]; cuffed rats, ipsilateral paw): at least 6 h
neuropathic pain, ipsilateral paw mechanical threshold ([5]; cuffed rats, listed as peptide 4): reversed the neuropathic pain
mechanical threshold of the sham group ([5]; sham rats): did not affect
effect on mechanical thresholds of Sham animals [1]: No significant effect
basic mechanical nociceptive thresholds of the contralateral hind legs ([1]; neuropathic mice): do not modify
analgesic effect, ipsilateral paw, at 3 h [1, 7]: significant analgesic effect
analgesic effect, ipsilateral paw, at 4 h post injection [1, 7]: significant analgesic effect
affinity for morphine [4]: showed an affinity
